From PMC8482815, “Targeting Host Glycolysis as a Strategy for Antimalarial Development” (Frontiers in Cellular and Infection Microbiology, 2021)
Where “and” joins values, the source holds several entries; their conditions need not be identical. Equal values may be shown once.

Tested on: human erythrocytes
Assay: Untargeted metabolomics and 13C-glucose tracing of enolase inhibitor treated erythrocytes
Format: cell-based
Details: 1h
Method: Freshly collected erythrocytes were washed, resuspended to 10% hematocrit in buffer [25mM HEPES (pH 7.4), 120mM NaCl, 5.4mM KCl, 1.8mM CaCl2, and 1mM NaH2PO4], incubated for 1 hour at 37°C, then centrifuged at 2000xg for 5 minutes at 4°C, resuspended in fresh wash buffer to 30-40% hematocrit, and split into 210µL aliquots of packed erythrocytes. […] All samples were incubated at 37°C shaking at 500 RPM. Triplicate samples of supernatants and packed erythrocytes were collected at 0, 0.5, 1, and 6-hour intervals and snap-frozen in liquid N2.
RBC and media samples were extracted at 1:10 and 1:20 dilutions, respectively, in 5:3:2 MeOH : MeCN:H2O v/v/v, and supernatants analyzed on a Thermo Vanquish UHPLC coupled to a Thermo Q Exactive mass spectrometer, as extensively described ([Nemkov et al., 2015]; [Nemkov et al., 2017]). The extraction buffer was supplemented with 40uM 3-^13C lactate to allow absolute quantification of lactate isotopologues, including lactate generated via glycolysis ([1,2,3-^13C3] enriched) vs. the pentose phosphate pathway ([2,3-^13C2] enriched), as described ([Reisz et al., 2016]). Metabolite assignments, peak area integration and isotopologues distributions were determined using Maven (Princeton University) ([Nemkov et al., 2015]; [Nemkov et al., 2017]).
Data were auto-scaled and normalized to zero-hour time points. Metabolites were removed from the dataset if greater than 50% of the samples contained missing values or the relative standard deviation among replicates exceeded 25%. Additionally, data was filtered using the interquartile range to reduce near-constant values from the experiment by 5%.
A principal component analysis of preprocessed data was plotted with the 95% confidence interval minimum volume enclosing ellipsoid for each respective group (MetaboAnalyst, cluster, plotly). A two-way repeated measures analysis of variance (ANOVA) was performed with multiple comparisons corrected for using a false discovery rate p-value cutoff of 0.05. Metabolite-Pathway analysis was performed using the R package of MetaboAnalyst, as previously described ([Xia and Wishart, 2010]). Metabolite-Protein nodal analysis was performed using omicsnet.ca and as previously described ([Zhou and Xia, 2018]).

[1] = treated erythrocytes, one value per replicate sample, polarity +
[2] = treated erythrocytes, one value per replicate sample, polarity -
[3] = treated erythrocytes, replicate samples

CC(C)(C)C(=O)OCOP(=O)(OCOC(=O)C(C)(C)C)C1CC(O)N(O)C1=O (stereo not shown) [POMSF]
AMP level (metabolomics signal) (replicate samples): 2.14E+06 and 1.66E+06 and 1.77E+06
ATP level (metabolomics signal) (replicate samples): 1.57E+04 and 2.82E+04 and 2.26E+04
Adenine level (metabolomics signal) (replicate samples): 1.34E+05 and 1.22E+05 and 1.52E+05
Cytosine level (metabolomics signal) (replicate samples): 3.68E+05 and 3.33E+05 and 3.22E+05
L-alanine level (metabolomics signal) (replicate samples): 8.35E+06 and 9.14E+06 and 1.12E+07
L-arginine level (metabolomics signal) (replicate samples): 1.02E+07 and 1.01E+07 and 0.00E+00
L-asparagine level (metabolomics signal) (replicate samples): 7.51E+06 and 6.72E+06 and 7.84E+06
L-aspartate level (metabolomics signal) (replicate samples): 3.12E+07 and 3.26E+07 and 2.90E+07
L-cysteine level (metabolomics signal) (replicate samples): 1.80E+06 and 1.83E+06 and 5.70E+05
L-glutamate level (metabolomics signal) (replicate samples): 3.18E+07 and 2.68E+07 and 2.49E+07
L-glutamine level (metabolomics signal) (replicate samples): 8.50E+07 and 9.01E+07 and 8.26E+07
L-histidine level (metabolomics signal) (replicate samples): 1.59E+06 and 1.54E+06 and 1.57E+06
L-isoleucine level (metabolomics signal) (replicate samples): 1.27E+07 and 1.24E+07 and 1.09E+07
L-leucine level (metabolomics signal) (replicate samples): 2.27E+08 and 2.54E+08 and 2.31E+08
L-lysine level (metabolomics signal) (replicate samples): 2.40E+06 and 2.03E+06 and 1.89E+06
L-methionine level (metabolomics signal) (replicate samples): 2.24E+07 and 2.35E+07 and 2.22E+07
L-phenylalanine level (metabolomics signal) (replicate samples): 1.58E+07 and 1.49E+07 and 1.43E+07
L-proline level (metabolomics signal) (replicate samples): 6.58E+07 and 5.90E+07 and 5.39E+07
L-serine level (metabolomics signal) (replicate samples): 4.64E+06 and 5.26E+06 and 6.00E+06
L-threonine level (metabolomics signal) (replicate samples): 8.46E+06 and 8.55E+06 and 8.85E+06
L-tryptophan level (metabolomics signal) (replicate samples): 5.00E+06 and 4.41E+06 and 4.35E+06
L-tyrosine level (metabolomics signal) (replicate samples): 2.58E+07 and 2.87E+07 and 2.75E+07
L-valine level (metabolomics signal) (replicate samples): 1.53E+08 and 1.47E+08 and 1.51E+08
dCMP level (metabolomics signal) (replicate samples): 1.51E+04 and 1.42E+04 and 1.15E+04
dTMP level (metabolomics signal) (replicate samples): 1.28E+06 and 1.27E+06 and 1.22E+06
glycine level (metabolomics signal) (replicate samples): 1.77E+06 and 2.28E+06 and 2.53E+06
N-Acyl-D-aspartate (C06380) metabolite signal [1]: 1.57E+05 and 1.16E+05 and 1.31E+05
Poly-gamma-D-glutamate (C05723) metabolite signal [1]: 5.78E+07 and 6.19E+07 and 5.54E+07
D-Ribitol 5-phosphate (C01068) metabolite signal [2]: 2.08E+04 and 2.67E+04 and 2.32E+04
D-glucono-1,5-lactone (C00198) metabolite signal [2]: 3.06E+05 and 3.20E+05 and 3.38E+05
L-Noradrenaline (C00547) metabolite signal [2]: 3.16E+04 and 3.80E+04 and 3.20E+04
Oxalosuccinate (C05379) metabolite signal [2]: 9.37E+04 and 1.04E+05 and 9.63E+04
Pyridoxamine (C00534) metabolite signal [2]: 1.68E+04 and 1.54E+04 and 2.58E+04
Thioredoxin disulfide (C00343) metabolite signal [2]: 5.72E+04 and 1.02E+05 and 5.14E+04
1-4-beta-D-Xylan (metabolite signal) [3]: 1.97E+05 and 1.92E+05 and 2.09E+05
2-Hydroxyglutarate/Citramalate (C02630) metabolite signal [3]: 7.86E+04 and 5.69E+04 and 5.61E+04
5-6-Dihydrothymine (C00906) metabolite signal [3]: 2.50E+05 and 2.77E+05 and 2.96E+05
5-10-Methenyltetrahydrofolate (metabolite signal) [3]: 1.06E+05 (2×) and 7.96E+04
5-Hydroxyisourate (C11821) metabolite signal [3]: 1.50E+06 and 2.10E+06 and 4.21E+06
5-L-Glutamyl-taurine (metabolite signal) [3]: 1.11E+05 and 1.18E+05 and 1.16E+05
5-Oxoproline (metabolite signal) [3]: 8.27E+05 and 7.57E+05 and 7.14E+05
(S)(+)-Allantoin (C02350) metabolite signal [3]: 1.72E+04 and 1.57E+04 and 2.62E+04
Allantoate (C00499) metabolite signal [3]: 6.65E+05 and 5.04E+05 and 3.15E+05
Ascorbate (metabolite signal) [3]: 1.17E+05 and 8.53E+04 and 8.00E+04
CMP-N-acetylneuraminate (metabolite signal) [3]: 1.67E+04 and 8.29E+03 and 7.76E+03
Carnosine (metabolite signal) [3]: 1.06E+05 and 9.45E+04 and 2.03E+05
Citrate (C00158) metabolite signal [3]: 4.35E+04 and 3.82E+04 and 3.29E+04
Creatine (metabolite signal) [3]: 2.46E+08 and 2.26E+08 and 2.23E+08
Creatinine (metabolite signal) [3]: 2.77E+06 and 2.62E+06 and 2.87E+06
Cys-Gly (metabolite signal) [3]: 2.32E+06 and 2.14E+06 and 1.32E+06
D-Glucosamine (metabolite signal) [3]: 2.29E+05 and 1.27E+05 and 2.04E+05
D-Glucose (C00031) metabolite signal [3]: 5.29E+06 and 5.04E+06 and 5.14E+06
D-Ribose (C00121) metabolite signal [3]: 1.64E+05 and 1.19E+05 and 1.18E+05
Dehydroascorbate (metabolite signal) [3]: 6.32E+04 and 5.87E+04 and 4.12E+04
Dihydrofolate (metabolite signal) [3]: 3.00E+06 and 2.07E+06 and 9.85E+05
Dimethylglycine (metabolite signal) [3]: 8.86E+05 and 1.02E+06 and 8.96E+05
Diphosphate (C00013) metabolite signal [3]: 2.94E+04 and 3.31E+04 and 1.77E+04
Fumarate (C00122) metabolite signal [3]: 1.04E+05 and 8.86E+04 and 8.87E+04
Glutathione (C00051) metabolite signal [3]: 1.54E+08 and 1.50E+08 and 9.17E+07
Glutathione disulfide (metabolite signal) [3]: 1.48E+05 and 9.64E+04 and 9.50E+04
Hypoxanthine (C00262) metabolite signal [3]: 3.21E+04 and 1.66E+04 and 8.15E+03
IMP (C00130) metabolite signal [3]: 1.58E+05 and 9.80E+04 and 1.96E+05
Inosine (C00294) metabolite signal [3]: 6.71E+04 and 6.29E+04 and 6.63E+04
L-Citrulline (metabolite signal) [3]: 2.74E+06 and 3.23E+06 and 3.99E+06
L-Homoserine (metabolite signal) [3]: 2.34E+05 and 2.10E+05 and 2.35E+05
Lactate (C01432) metabolite signal [3]: 9.22E+06 and 8.76E+06 and 8.98E+06
Malate (C00149) metabolite signal [3]: 1.55E+05 and 1.07E+05 and 9.91E+04
Mannitol (C00392) metabolite signal [3]: 1.01E+05 and 9.53E+04 and 1.38E+05
N-Acetylneuraminate (metabolite signal) [3]: 2.25E+04 and 1.68E+04 and 2.38E+04
N-Glycoloyl-neuraminate (metabolite signal) [3]: 1.23E+05 and 1.51E+05 and 1.32E+05
NAD+ (C00003) metabolite signal [3]: 8.73E+04 and 4.11E+04 and 4.40E+04
Nicotinamide (C00153) metabolite signal [3]: 3.46E+07 and 3.78E+07 and 4.86E+07
Ornithine (metabolite signal) [3]: 1.57E+06 (2×) and 1.55E+06
Oxaloacetate (C00036) metabolite signal [3]: 5.69E+04 and 5.42E+04 and 4.38E+04
Phosphoserine (metabolite signal) [3]: 0.00E+00 (2×) and 3.46E+04
Putrescine (metabolite signal) [3]: 4.96E+04 and 2.87E+04 and 4.23E+04
Pyridoxal (C00250) metabolite signal [3]: 5.84E+04 and 5.75E+04 and 6.92E+04
Pyruvate (C00022) metabolite signal [3]: 9.01E+05 and 7.95E+05 and 8.15E+05
S-Glutathionyl-L-cysteine (metabolite signal) [3]: 1.18E+05 and 8.54E+04 and 7.69E+04
Sedoheptulose 1-phosphate (C06222) metabolite signal [3]: 1.59E+04 and 1.93E+04 and 8.80E+03
Spermidine (metabolite signal) [3]: 8.37E+06 and 7.92E+06 and 6.82E+06
Spermine (metabolite signal) [3]: 1.09E+07 and 1.10E+07 and 8.00E+06
Succinate (C00042) metabolite signal [3]: 7.45E+04 and 8.48E+04 and 5.74E+04
Thymidine (C00214) metabolite signal [3]: 1.11E+04 and 1.24E+04 and 8.29E+03
UDP (C00015) metabolite signal [3]: 2.25E+05 and 1.89E+05 and 1.40E+05
UDP-N-acetyl-D-glucosamine (metabolite signal) [3]: 1.24E+04 and 7.59E+03 and 4.65E+03
UDP-glucose (C00029) metabolite signal [3]: 2.38E+04 and 1.72E+04 and 9.18E+03
Urate (C00366) metabolite signal [3]: 3.27E+04 and 2.94E+04 and 2.46E+04
Xanthine (C00385) metabolite signal [3]: 2.31E+05 and 1.91E+05 and 1.90E+05
alpha-D-Glucosamine 1-phosphate (metabolite signal) [3]: 4.45E+05 and 6.15E+05 and 8.58E+05
alpha-D-Ribose 1-phosphate (C00620) metabolite signal [3]: 6.39E+04 and 6.67E+04 and 4.32E+04
gamma-Glutamyl-gamma-aminobutyrate (metabolite signal) [3]: 7.63E+04 and 8.93E+04 and 1.06E+05
gamma-L-Glutamyl-D-alanine (metabolite signal) [3]: 4.26E+04 and 3.07E+04 and 3.12E+04
gamma-L-Glutamyl-L-cysteine (metabolite signal) [3]: 3.96E+04 and 5.76E+04 and 1.90E+04
